# ChEMBL document CHEMBL2169878 (J Med Chem, 2012)
# Active and inactive are the calls of the source. No cut-off for these calls is given here.
# How the values were obtained:
# [1] = system: Plasmodium falciparum; assay: Resistance ratio of IC50 for chloroquine-resistant Plasmodium falciparum W2 to IC50 for chloroquine-sensitive Plasmodium falciparum D10; type: functional
# [2] = system: Plasmodium berghei; assay: Antimalarial activity against Plasmodium berghei ANKA expressing GFP infected in mouse assessed as reduction in parasitemia at 30 mg/kg, po administered at 6,24,48 and 72 hrs post-infection measured 24 hrs post-final dosing by flow cytometric analysis; type: functional; set-up: scale not given: the % may be the effect or the level left
# [3] = target: T1, Chloroquine resistance transporter (Plasmodium falciparum) (UniProt Q9N623); assay: Inhibition of chloroquine-sensitive Plasmodium falciparum D10 CRT expressed in Xenopus laevis oocyte assessed as inhibition of [3H]chloroquine uptake at 100 uM measured from 1 to 2 hrs
# T1 sequence (whole entry): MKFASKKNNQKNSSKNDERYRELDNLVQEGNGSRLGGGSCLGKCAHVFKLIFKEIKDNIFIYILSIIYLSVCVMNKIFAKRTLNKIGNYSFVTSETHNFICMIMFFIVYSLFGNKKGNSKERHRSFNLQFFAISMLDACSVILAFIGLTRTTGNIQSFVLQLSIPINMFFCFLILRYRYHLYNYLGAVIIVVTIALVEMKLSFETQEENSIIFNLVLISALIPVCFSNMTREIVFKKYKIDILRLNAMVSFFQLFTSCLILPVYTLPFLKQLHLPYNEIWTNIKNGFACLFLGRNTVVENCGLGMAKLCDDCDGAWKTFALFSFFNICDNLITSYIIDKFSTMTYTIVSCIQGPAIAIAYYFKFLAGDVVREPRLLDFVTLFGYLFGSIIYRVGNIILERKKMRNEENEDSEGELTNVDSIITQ
smiles,measurement,setting,value
Clc1ccc(C(Nc2ccnc3cc(Cl)ccc23)c2ccc(CN3CCNCC3)cc2)cc1 (racemic),Ratio IC50,[1],0.93
same,Activity,[2],99.8%
same,inhibition,[3],inactive
